Counter-ions that a name gives are not always drawn.
What was measured:
Format in all cases: biochemical
[1] = target: T1, human factor XIa (Homo sapiens, UniProt P03951); test: Measurement of FXIa inhibition (fluorogenic peptide substrate Boc-Glu(OBzl)-Ala-Arg-AMC); conditions: factor XIa from Kordia, 15 min preincubation, 30 min at 22° C., fluorescence
T1 construct: purchased Kordia

[2] = tested on: human and animal plasma; test: Determination of anticoagulatory activity: activated partial thromboplastin time (aPTT) in plasma; conditions: concentration of test substance which brings about a 1.5-fold extension of the aPTT, 37° C., C.K. Prest kit
Protocol: The anticoagulatory activity of the test substances is determined in vitro in human and animal plasma (for example mouse, rat, rabbit, pig and dog plasma). To this end, blood is drawn off in a mixing ratio of sodium citrate/blood of 1:9 using a 0.11 molar sodium citrate solution as receiver. Immediately after the blood has been drawn off, it is mixed thoroughly and centrifuged at about 4000 g for 15 minutes. The supernatant is pipetted off.
The activated partial thromboplastin time (aPTT) is determined in the presence of varying concentrations of test substance or the corresponding solvent using a commercial test kit (C.K. Prest from Diagnostica Stago). The test compounds are incubated with the plasma and the PTT reagent (cephalin, kaolin) at 37° C. for 3 minutes. Coagulation is then started by addition of a 25 mM aqueous calcium chloride solution, and the time when coagulation occurs is determined. The concentration of test substance which brings about a 1.5-fold extension of the aPTT is determined Activity data from this test are listed in Table B below: […]

[3] = target: T2, human plasmin (Homo sapiens, UniProt P00747); test: Measurement of plasmin inhibition (fluorogenic peptide substrate MeOSuc-Ala-Phe-Lys-AMC); conditions: plasmin from Kordia, 15 min preincubation, 30 min at 22° C., fluorescence
T2 construct: purchased Kordia
T2 sequence (P00747 581-810 limits assumed): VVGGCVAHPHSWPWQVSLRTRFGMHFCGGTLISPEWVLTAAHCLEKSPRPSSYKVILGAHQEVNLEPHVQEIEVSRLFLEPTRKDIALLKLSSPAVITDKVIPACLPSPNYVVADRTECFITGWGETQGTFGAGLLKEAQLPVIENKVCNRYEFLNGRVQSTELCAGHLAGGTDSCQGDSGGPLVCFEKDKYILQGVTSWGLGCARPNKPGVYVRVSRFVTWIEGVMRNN
T2 sequence (P00747 97-580 partner limits assumed): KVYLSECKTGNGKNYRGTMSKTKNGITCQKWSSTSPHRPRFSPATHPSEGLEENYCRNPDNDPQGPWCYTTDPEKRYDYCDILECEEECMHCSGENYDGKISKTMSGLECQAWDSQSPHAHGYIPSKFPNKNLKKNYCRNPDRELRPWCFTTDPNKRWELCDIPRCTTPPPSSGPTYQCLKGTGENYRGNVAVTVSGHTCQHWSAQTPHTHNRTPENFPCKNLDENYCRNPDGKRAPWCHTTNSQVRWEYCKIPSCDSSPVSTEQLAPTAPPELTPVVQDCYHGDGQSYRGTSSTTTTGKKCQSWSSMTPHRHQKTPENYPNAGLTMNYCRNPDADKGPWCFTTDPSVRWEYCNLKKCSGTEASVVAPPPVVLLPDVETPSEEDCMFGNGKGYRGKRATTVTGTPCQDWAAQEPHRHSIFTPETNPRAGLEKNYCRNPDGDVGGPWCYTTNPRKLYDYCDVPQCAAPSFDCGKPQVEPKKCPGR
Protocol: The plasmin inhibition of the inventive substances is determined using a biochemical test system which utilizes the reaction of a peptidic plasmin substrate to determine the enzymatic activity of human plasmin. Here, plasmin cleaves from the peptic plasmin substrate the C-terminal aminomethylcoumarin (AMC), the fluorescence of which is measured. The determinations are carried out in microtitre plates.
Test substances are dissolved in dimethyl sulphoxide and serially diluted in dimethyl sulphoxide (3000 μM to 0.0078 μM; resulting final concentrations in the test: 50 μM to 0.00013 μM). In each case 1 μl of the diluted substance solutions is placed into the wells of white microtitre plates from Greiner (384 wells). […] After 15 min of incubation, the enzyme reaction is started by addition of 20 μl of the plasmin substrate MeOSuc-Ala-Phe-Lys-AMC dissolved in assay buffer (150 μM in assay buffer) from Bachem, the mixture is incubated at room temperature (22° C.) for 30 min and fluorescence is then measured (excitation: 360 nm, emission: 460 nm). The measured emissions of the test batches with test substance are compared to those of control batches without test substance (only dimethyl sulphoxide instead of test substance in dimethyl sulphoxide), and IC50 values are calculated from the concentration/activity relationships.

T1 sequence (P03951 388-625 limits assumed): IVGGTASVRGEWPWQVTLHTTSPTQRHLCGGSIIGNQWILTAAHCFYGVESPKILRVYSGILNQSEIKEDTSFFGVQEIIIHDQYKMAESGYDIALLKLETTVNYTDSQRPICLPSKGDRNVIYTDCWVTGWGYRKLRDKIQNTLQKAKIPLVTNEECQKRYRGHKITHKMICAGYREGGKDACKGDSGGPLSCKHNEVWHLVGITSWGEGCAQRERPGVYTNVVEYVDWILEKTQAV
T1 sequence (P03951 19-387 partner limits assumed): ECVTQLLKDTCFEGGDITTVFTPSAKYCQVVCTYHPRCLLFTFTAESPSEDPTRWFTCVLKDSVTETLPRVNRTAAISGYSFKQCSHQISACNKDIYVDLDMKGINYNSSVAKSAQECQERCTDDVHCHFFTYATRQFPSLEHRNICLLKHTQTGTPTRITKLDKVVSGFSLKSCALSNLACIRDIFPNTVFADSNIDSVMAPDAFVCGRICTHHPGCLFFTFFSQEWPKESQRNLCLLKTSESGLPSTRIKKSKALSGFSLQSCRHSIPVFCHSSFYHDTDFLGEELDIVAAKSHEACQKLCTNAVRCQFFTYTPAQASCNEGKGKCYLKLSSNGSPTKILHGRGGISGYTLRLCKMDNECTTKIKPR

IC50 [1] | SMILES | aPTT [2] | IC50 [3]
3.6 nM | CC1CN(c2ccc(-c3ccc(C[C@H](NC(=O)C4CCC(CN)CC4)C(=O)Nc4ccc(-c5nn[nH]n5)cc4)cc3)cn2)CC(C)O1 (mixture of isomers) [Example 9, N-alpha-{[trans-4-(Aminomethyl)cyclohexyl]carbonyl}-4-{6-[(2RS,6SR)-2,6-dimethylmorpholin-4-yl]pyridin-3-yl}-N-[4-(2H-tetrazol-5-yl)phenyl]-L-phenylalaninamide hydrochloride] | 0.35 µmol/L | 14 nM
5.3 nM | CN1CCN(S(=O)(=O)c2cncc(-c3ccc(C[C@H](NC(=O)[C@H]4CC[C@H](CN)CC4)C(=O)Nc4ccc(-c5nnn[nH]5)cc4)cc3)c2)CC1 [Example 2, N-alpha-{[trans-4-(Aminomethyl)cyclohexyl]carbonyl}-4-{5-[(4-methylpiperazin-1-yl)sulphonyl]pyridin-3-yl}-N-[4-(1H-tetrazol-5-yl)phenyl]-L-phenylalaninamide hydrochloride] | 0.28 µmol/L | 
3.2 nM | NC[C@H]1CC[C@H](C(=O)N[C@@H](Cc2ccc(-c3cncc(N)c3)cc2)C(=O)Nc2ccc(-c3nnn[nH]3)cc2)CC1 [Example 49, N-alpha-{[trans-4-(Aminomethyl)cyclohexyl]carbonyl}-4-(5-aminopyridin-3-yl)-N-[4-(1H-tetrazol-5-yl)phenyl]-L-phenylalaninamide hydrochloride] | 0.14 µmol/L | 
2.3 nM | NC[C@H]1CC[C@H](C(=O)N[C@@H](Cc2ccc(-c3cccnc3Cl)cc2)C(=O)Nc2ccc(-c3nnn[nH]3)cc2)CC1 [Example 3, N-alpha-{[trans-4-(Aminomethyl)cyclohexyl]carbonyl}-4-(2-chloropyridin-3-yl)-N-[4-(1H-tetrazol-5-yl)phenyl]-L-phenylalaninamide hydrochloride] | 0.24 µmol/L | 
2.2 nM | NC[C@H]1CC[C@H](C(=O)N[C@@H](Cc2ccc(-c3ccc(N4CCOCC4)nc3)cc2)C(=O)Nc2ccc(-c3nn[nH]n3)cc2)CC1 [Example 7, N-alpha-{[trans-4-(Aminomethyl)cyclohexyl]carbonyl}-4-[6-(morpholin-4-yl)pyridin-3-yl]-N-[4-(2H-tetrazol-5-yl)phenyl]-L-phenylalaninamide hydrochloride] | 0.29 µmol/L | 
3.7 nM | Cc1nc(N)ccc1-c1ccc(C[C@H](NC(=O)[C@H]2CC[C@H](CN)CC2)C(=O)Nc2ccc(-c3nnn[nH]3)cc2)cc1 [Example 51, N-alpha-{[trans-4-(Aminomethyl)cyclohexyl]carbonyl}-4-(6-amino-2-methylpyridin-3-yl)-N-[4-(1H-tetrazol-5-yl)phenyl]-L-phenylalaninamide hydrochloride] | 0.19 µmol/L | 
2 nM | NC[C@H]1CC[C@H](C(=O)N[C@@H](Cc2ccc(-c3ccc(N4CCOCC4)nc3)c(F)c2)C(=O)Nc2ccc(-c3nn[nH]n3)cc2)CC1 [Example 44, N-alpha-{[trans-4-(Aminomethyl)cyclohexyl]carbonyl}-3-fluoro-4-[6-(morpholin-4-yl)pyridin-3-yl]-N-[4-(2H-tetrazol-5-yl)phenyl]-L-phenylalaninamide hydrochloride] | 0.22 µmol/L | 
5.3 nM | NC[C@H]1CC[C@H](C(=O)N[C@@H](Cc2ccc(-c3cccnc3O)cc2)C(=O)Nc2ccc(-c3nn[nH]n3)cc2)CC1 [Example 37, N-alpha-{[trans-4-(Aminomethyl)cyclohexyl]carbonyl}-4-(2-hydroxypyridin-3-yl)-N-[4-(2H-tetrazol-5-yl)phenyl]-L-phenylalaninamide hydrochloride] | 0.26 µmol/L | 
15 nM | CS(=O)(=O)c1cncc(-c2ccc(C[C@H](NC(=O)[C@H]3CC[C@H](CN)CC3)C(=O)Nc3ccc(-c4nn[nH]n4)cc3)cc2)c1 [Example 39, N-alpha-{[trans-4-(Aminomethyl)cyclohexyl]carbonyl}-4-[5-(methylsulphonyl)pyridin-3-yl]-N-[4-(2H-tetrazol-5-yl)phenyl]-L-phenylalaninamide hydrochloride] | 0.38 µmol/L | 
8 nM | CN(C)c1ncc(-c2ccc(C[C@H](NC(=O)[C@H]3CC[C@H](CN)CC3)C(=O)Nc3ccc(-c4nn[nH]n4)cc3)cc2)cn1 [Example 25, N-alpha-{[trans-4-(Aminomethyl)cyclohexyl]carbonyl}-4-[2-(dimethylamino)pyrimidin-5-yl]-N-[4-(2H-tetrazol-5-yl)phenyl]-L-phenylalaninamide hydrochloride] | 0.29 µmol/L | 
3.5 nM | Cc1cc(N2CCNCC2)ncc1-c1ccc(C[C@H](NC(=O)[C@H]2CC[C@H](CN)CC2)C(=O)Nc2ccc(-c3nnc(Cl)[nH]3)cc2)cc1 [Example 48, N-alpha-{[trans-4-(Aminomethyl)cyclohexyl]carbonyl}-N-[4-(3-chloro-4H-1,2,4-triazol-5-yl)phenyl]-4-[4-methyl-6-(piperazin-1-yl)pyridin-3-yl]-L-phenylalaninamide hydrochloride] | 0.11 µmol/L | 
2.8 nM | NC[C@H]1CC[C@H](C(=O)N[C@@H](Cc2ccc(-c3ccncc3Cl)cc2)C(=O)Nc2ccc(-c3nn[nH]n3)cc2)CC1 [Example 15, N-alpha-{[trans-4-(Aminomethyl)cyclohexyl]carbonyl}-4-(3-chloropyridin-4-yl)-N-[4-(2H-tetrazol-5-yl)phenyl]-L-phenylalaninamide hydrochloride] | 0.14 µmol/L | 
1.3 nM | Cc1cc(N2CCOCC2)ncc1-c1ccc(C[C@H](NC(=O)[C@H]2CC[C@H](CN)CC2)C(=O)Nc2ccc(-c3nn[nH]n3)cc2)cc1 [Example 29, N-alpha-{[trans-4-(Aminomethyl)cyclohexyl]carbonyl}-4-[4-methyl-6-(morpholin-4-yl)pyridin-3-yl]-N-[4-(2H-tetrazol-5-yl)phenyl]-L-phenylalaninamide hydrochloride] | 0.21 µmol/L | 

SMILES | IC50 [1] | aPTT [2] | IC50 [3]
CCOC(=O)c1ccc(-c2ccc(C[C@H](NC(=O)[C@H]3CC[C@H](CN)CC3)C(=O)Nc3ccc(-c4nn[nH]n4)cc3)cc2)c(C)n1 [Example 58, Ethyl 5-{4-[(2S)-2-({[trans-4-(aminomethyl)cyclohexyl]carbonyl}amino)-3-oxo-3-{[4-(2H-tetrazol-5-yl)phenyl]amino}propyl]phenyl}-6-methylpyridin-2-carboxylate hydrochloride] | 0.8 nM | 0.34 µmol/L | 8.6 nM
NC[C@H]1CC[C@H](C(=O)N[C@@H](Cc2ccc(-c3ccncc3)cc2)C(=O)Nc2ccc(-c3noc(=O)[nH]3)cc2)CC1 [Example 8, N-alpha-{[trans-4-(Aminomethyl)cyclohexyl]carbonyl}-N-[4-(5-oxo-4,5-dihydro-1,2,4-oxadiazol-3-yl)phenyl]-4-pyridin-4-yl-L-phenylalaninamide hydrochloride] | 9.2 nM | 0.15 µmol/L | 

From patent US20160280699A1, “SUBSTITUTED PHENYLALANINE DERIVATIVES” (BAYER PHARMA AKTIENGESELLSCHAFT, priority 2013, published 2016)
